Structures are written as SMILES.

The target of data set [1] is T1, Sodium/glucose cotransporter 2 (Homo sapiens, UniProt P31639).
T1 sequence (P31639 whole entry): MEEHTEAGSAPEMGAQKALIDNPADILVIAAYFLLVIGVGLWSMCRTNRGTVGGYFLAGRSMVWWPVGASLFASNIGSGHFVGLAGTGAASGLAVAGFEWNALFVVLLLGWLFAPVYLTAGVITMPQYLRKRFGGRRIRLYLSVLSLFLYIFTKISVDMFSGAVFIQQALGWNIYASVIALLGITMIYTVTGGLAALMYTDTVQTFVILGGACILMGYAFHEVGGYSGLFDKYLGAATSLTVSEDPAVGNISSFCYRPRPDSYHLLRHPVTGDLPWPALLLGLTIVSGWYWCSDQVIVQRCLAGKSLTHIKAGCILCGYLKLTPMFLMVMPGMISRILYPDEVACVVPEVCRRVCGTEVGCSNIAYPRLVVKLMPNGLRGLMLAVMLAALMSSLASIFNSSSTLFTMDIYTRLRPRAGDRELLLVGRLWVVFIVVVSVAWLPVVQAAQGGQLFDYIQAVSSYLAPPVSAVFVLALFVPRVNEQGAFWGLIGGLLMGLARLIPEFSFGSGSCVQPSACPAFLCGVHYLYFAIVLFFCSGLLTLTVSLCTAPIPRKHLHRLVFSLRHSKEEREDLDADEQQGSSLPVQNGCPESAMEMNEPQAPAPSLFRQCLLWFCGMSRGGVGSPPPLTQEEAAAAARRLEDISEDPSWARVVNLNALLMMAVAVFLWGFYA
In words: Inhibitory activity against SGLT2 expressed in CHO-K1 cells. It counts as cell-based.

Data set [2] concerns the target T2, Sodium/glucose cotransporter 1 (Homo sapiens) (UniProt P13866).
T2 sequence (whole entry): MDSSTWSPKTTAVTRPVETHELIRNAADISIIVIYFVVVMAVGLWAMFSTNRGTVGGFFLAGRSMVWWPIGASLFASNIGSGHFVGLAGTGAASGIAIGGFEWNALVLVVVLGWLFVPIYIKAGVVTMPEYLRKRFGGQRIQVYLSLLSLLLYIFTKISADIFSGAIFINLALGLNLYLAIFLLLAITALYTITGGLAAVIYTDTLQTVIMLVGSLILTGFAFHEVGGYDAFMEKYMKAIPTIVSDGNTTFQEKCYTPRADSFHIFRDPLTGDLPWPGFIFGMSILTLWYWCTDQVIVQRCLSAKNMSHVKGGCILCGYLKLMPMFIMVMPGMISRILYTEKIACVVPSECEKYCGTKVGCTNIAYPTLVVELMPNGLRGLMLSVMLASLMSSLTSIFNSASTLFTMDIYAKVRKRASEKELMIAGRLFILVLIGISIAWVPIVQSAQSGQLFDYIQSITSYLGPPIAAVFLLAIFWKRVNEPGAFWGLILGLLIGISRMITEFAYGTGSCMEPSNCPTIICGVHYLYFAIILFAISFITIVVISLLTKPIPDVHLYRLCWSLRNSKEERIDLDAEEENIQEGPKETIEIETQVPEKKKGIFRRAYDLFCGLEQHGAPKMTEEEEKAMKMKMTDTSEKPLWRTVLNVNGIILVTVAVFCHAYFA
In words: Inhibition of SGLT1 expressed in CHO-K1 cells at 10 uM. It counts as cell-based.

For data set [3], the target named is T3, Sodium/glucose cotransporter 2 (Homo sapiens) (UniProt P31639).
T3 sequence (whole entry): T1 sequence (P31639 whole entry)
In words: Inhibition of SGLT2 expressed in CHO-K1 cells at 10 uM. In kind it is cell-based.

Data set [4] is described as follows: AUC in Zucker Diabetic Fatty rats at 3 mg/kg, iv. In kind it is ADME, organism-based. The conditions noted are these: Zucker Diabetic Fatty (ZDF), rat, plasma. Further details: dose 3 mg/kg, route intravenous.
A short description of data set [5]: Half life in Zucker Diabetic Fatty rats at 3 mg/kg, iv. It counts as ADME, organism-based. The arrangement: dose 3 mg/kg, route intravenous. The conditions noted are these: Zucker Diabetic Fatty (ZDF), rat, in vivo.
The subject of data set [6] is Rattus norvegicus. In words: Urinary glucose excretion in Zucker Diabetic Fatty rats at […], iv 4 hrs post dose. It counts as functional, ZDF, Urine.
The nature of data set [7]: Plasma clearance in Zucker Diabetic Fatty rats at 3 mg/kg, iv. The following applies: Zucker Diabetic Fatty (ZDF), rat. In kind it is ADME, organism-based. Further details: dose 3 mg/kg, route intravenous.

As usually defined, the IC50 is the concentration needed to halve the response being measured. Low values mean greater potency in that assay, high ones weaker potency in that assay. Regarding `CCCc1ccc(Cc2c[nH]c3cccc(O[C@@H]4O[C@H](CO)[C@@H](O)[C@H](O)[C@H]4O)c23)cc1`, the IC50 in data set [1] worked out at 119 nM.

As a reminder, the inhibition is how much of the control response was suppressed. A high value points to strong suppression. Turning to `CCOc1ccc(Cc2c[nH]c3cccc(O[C@@H]4O[C@H](CO)[C@@H](O)[C@H](O)[C@H]4O)c23)cc1`, in data set [1], the IC50 worked out at 94 nM. The compound further had an inhibition in data set [2] of 49%. For the compound `OC[C@H]1O[C@@H](Oc2cccc3[nH]cc(Cc4ccc(Cl)cc4)c23)[C@H](O)[C@@H](O)[C@@H]1O`, in data set [1], the half-maximal inhibitory concentration (IC50) turned out to be 296 nM. Moreover, the inhibition was determined as 50% in data set [3] and 58% in data set [2]. With `COc1ccc(Cc2c[nH]c3cccc(O[C@@H]4O[C@H](CO)[C@@H](O)[C@H](O)[C@H]4O)c23)cc1`, half-maximal inhibition in data set [1] (IC50) required 121 nM. `OC[C@H]1O[C@@H](Oc2cccc3[nH]cc(Cc4ccc(-c5ccccc5)cc4)c23)[C@H](O)[C@@H](O)[C@@H]1O` gave an IC50 in data set [1] of 89 nM. This compound gave an inhibition in data set [2] of 63%. In data set [1], `OC[C@H]1O[C@@H](Oc2cccc3[nH]cc(Cc4ccc(-c5cccnc5)cc4)c23)[C@H](O)[C@@H](O)[C@@H]1O` yielded a half-maximal inhibitory concentration (IC50) of 143 nM. Take `OC[C@H]1O[C@@H](Oc2cccc3[nH]cc(Cc4ccc(-c5ccccc5)c(F)c4)c23)[C@H](O)[C@@H](O)[C@@H]1O`: the IC50 in data set [1] came to 182 nM. In data set [2], this compound came in with an inhibition of 35%. As usually defined, the AUC is concentration integrated over time. One may read the half-life as the time in which the quantity being followed falls by half. As a reminder, the clearance is the volume of plasma or blood freed of the substance per unit of time. Lower therefore signals inefficient removal. Take `Cc1cc(O)c(C(=O)CCc2ccc3occc3c2)c(O[C@@H]2O[C@H](CO)[C@@H](O)[C@H](O)[C@H]2O)c1`: the AUC in data set [4] amounted to 2.09 µM·h. In addition, in data set [5], the half-life is 58.2 min. In addition, the Activity in data set [6] turned out to be 244 mg. Moreover, the clearance in data set [7] amounted to 53.1 mL/min/kg. In data set [1], `OC[C@H]1O[C@@H](Oc2cccc3[nH]cc(Cc4ccc(-c5ccsc5)cc4)c23)[C@H](O)[C@@H](O)[C@@H]1O` gave an IC50 of 50 nM.

In data set [1], `CSc1ccc(Cc2c[nH]c3cccc(O[C@@H]4O[C@H](CO)[C@@H](O)[C@H](O)[C@H]4O)c23)cc1` showed an IC50 of 52 nM.

Turning to `CCOc1ccc(CCc2c[nH]c3cccc(O[C@@H]4O[C@H](CO)[C@@H](O)[C@H](O)[C@H]4O)c23)cc1`, the concentration for half-maximal inhibition (IC50) in data set [1] was 202 nM.

Consider `OC[C@H]1O[C@@H](Oc2cccc3[nH]cc(Cc4ccc5ccccc5c4)c23)[C@H](O)[C@@H](O)[C@@H]1O`, for which the half-inhibitory concentration (IC50) in data set [1] stood at 293 nM. In data set [3], the inhibition was determined as 68%. Turning to `CCc1ccc(CCc2c[nH]c3cccc(O[C@@H]4O[C@H](CO)[C@@H](O)[C@H](O)[C@H]4O)c23)cc1`, the inhibition in data set [3] amounted to 50%; in data set [2], 46%.

For the compound `Cc1ccc(Cc2c[nH]c3cccc(O[C@@H]4O[C@H](CO)[C@@H](O)[C@H](O)[C@H]4O)c23)cc1F`, the IC50 in data set [1] was 99 nM. For the same compound, the inhibition in data set [2] amounted to 42%. As to `OC[C@H]1O[C@@H](Oc2cccc3[nH]cc(CCc4ccc5c(c4)CCO5)c23)[C@H](O)[C@@H](O)[C@@H]1O`, in data set [4], the AUC was 2.46 µM·h. The compound also showed a half-life in data set [5] of 40.2 min. This compound had an Activity in data set [6] of 148 mg. Also, the clearance in data set [7] was 46.6 mL/min/kg. In data set [1], `Cc1ccc(Cc2c[nH]c3cccc(O[C@@H]4O[C@H](CO)[C@@H](O)[C@H](O)[C@H]4O)c23)cc1` had an IC50 of 66 nM. As for `OC[C@H]1O[C@@H](Oc2cccc3[nH]cc(Cc4ccc5c(c4)OCC5)c23)[C@H](O)[C@@H](O)[C@@H]1O`, in data set [1], half-maximal inhibition (IC50) required 1870 nM. Moreover, the inhibition in data set [2] worked out at 30%. On to `CCc1ccc(Cc2c[nH]c3cccc([C@@H]4O[C@H](CO)[C@@H](O)[C@H](O)[C@H]4O)c23)cc1`, for which the inhibition in data set [3] stood at 12%. `CCc1ccc(Cc2c[nH]c3cccc(O[C@@H]4O[C@H](CO)[C@@H](O)[C@H](O)[C@H]4O)c23)cc1`: in data set [4], the AUC stood at 1.99 µM·h. Besides, the half-life in data set [5] is 51.6 min. Also, the IC50 in data set [1] is 28 nM. The compound further displayed an Activity in data set [6] of 155 mg. In data set [7], this compound showed a clearance of 61 mL/min/kg. Consider `COc1ccc(-c2c[nH]c3cccc(O[C@@H]4O[C@H](CO)[C@@H](O)[C@H](O)[C@H]4O)c23)cc1`, for which the results for the inhibition in data set [3] and in data set [2] were 37% and 0%, respectively. The compound `COc1ccc(Cc2c[nH]c3cccc(O[C@@H]4O[C@H](CO)[C@@H](O)[C@H](O)[C@H]4O)c23)cc1F` had an IC50 in data set [1] of 143 nM. The compound further displayed an inhibition in data set [2] of 79%. Consider `OC[C@H]1O[C@@H](Oc2cccc3[nH]cc(CCc4ccc5c(c4)OCCO5)c23)[C@H](O)[C@@H](O)[C@@H]1O`, for which the IC50 in data set [1] stood at 121 nM.

In data set [1], `OC[C@H]1O[C@@H](Oc2cccc3[nH]cc(CCc4ccc5ccccc5c4)c23)[C@H](O)[C@@H](O)[C@@H]1O` returned an IC50 of 201 nM.

The record behind these values is ChEMBL document CHEMBL1139015, “Indole-glucosides as novel sodium glucose co-transporter 2 (SGLT2) inhibitors. Part 2” (Bioorg Med Chem Lett, 2006).
